Test results as given in patent publication US20120237533A1, “Compositions and Methods for Inducing Apoptosis in Prostate Cancer Cells” (priority 2009, published 2012).

How the values were obtained:
[1] = tested on: Prostate cancer C42 cells; assay: Apoptosis assays: caspase-3 activity and time lapse video recording; type: cell-based; details: for concentration at which maximal caspase activation is achieved: comparison of PI3K inhibitors
Procedure: FIG. 6. […] Prostate cancer C42 cells were treated with 10 nM of TGFα-pseudomonas exotoxin chimera (PE) and 500 nM PI3K inhibitor ZSTK474 (ZSTK) or PI3K inhibitor LY294002 (LY) individually and in combination. A) Caspase activity was measured 3 h and 6 h after treatments began; B) Time lapse video-recording of C42 cells treated with 10 nM PE or combination of 10 nM PE and 500 nM ZSTK474. Representative images taken 2, 5, and 14 h after treatments began; C) Caspase activity measured 6 h after cells were treated with increasing concentrations of PE and 25 mcM of LY294002 (LY).
Western blotting—Tumors were excised, homogenized on ice in lysis buffer [10% glycerol, 50 mM PIPES-KOH (pH 7.4), 5 mM EDTA, 1% NP40, 1 mM DTT, protease and phosphatase inhibitors;] centrifuged 10 min 14,000 G to precipitate unsoluble fraction. Soluble fraction was resolved by SDS-PAGE followed by Western blotting on nitrocellulose. Nitrocellulose membranes were probed with antibodies to Akt and phospho-Akt according to manufacturer's instructions; the appropriate secondary antibodies were then applied and positive signals detected by enhanced chemiluminescence. Immunofluorescence—Cells were plated on glass coverslips in 6-well plates and treated and fixed with 10% formalin in PBS (pH 7.4) for 15 min. The cells were then blocked in 2.5% goat serum in PBS-T for 30 min at 37° C. Blocking solution was used to prepare a 1:300 mixture of mouse-J591 anti-PSMA antibodies subsequent procedures were done at room temperature. Incubation with primary antibodies was continued for 3 h. The cells were then washed three times with PBS-T and incubated with a mixture of goat antimouse antibodies conjugated with fluorescein, diluted in blocking solution at a ratio of 1:300 each. One h later, cells were washed with PBS-T, stained with DAPI, and mounted on glass microscope slides. Image analysis was done on a Nikon microscope equipped with a digital camera and software from Inovision (Durham, N.C.). Tumor Implantations—Nude mice (BALB/cAnNCrj-nu from Charles River) received four subcutaneous injections or two intratibial injections of 2×10^6 cells with Matrigel. Injections were made using an insulin syringe and a 27 gauge needle. All manipulations with animals were conducted in humane manner, in strict adherence with a protocol approved by institutional ACUC, which was designed to minimize animal suffering. Luminescence Imaging—Tumor growth was analyzed with a Xenogen IVIS® 100 optical imaging system (Caliper Life Sciences, Hopkinton, Mass.). Animals were immobilized for substrate injection and imaging through an attached gas anesthesia system consisting of 2% isoflurane/O2. To account for background and nonspecific luminescence, mice were imaged before injection of […]. Animals were injected with 100 μl of the firefly luciferase substrate luciferin (3.5 mg/ml in PBS) and imaged 15 minutes later in prone and supine positions (5 minutes each). Whole-body images were obtained using the Living Image® software provided with imaging system. A gray-scale photographic image and the bioluminescent color image are superimposed to provide anatomic registration of the light signal. A region of interest (ROI) was manually selected over the luminescent signal, and the intensity was recorded as photons/second within an ROI. Apoptosis Assays—Apoptosis in whole cell populations was quantified by measuring caspase-3 activity with the fluorogenic substrate Ac-DEVD-7-amido-4-trifluoromethyl-coumarin (Bachem) as specified by the manufacturer. For these experiments, attached and floating cells were collected and lysed in caspase lysis buffer (1% Nonidet P-40, 150 mM NaCl, 20 mM HEPES, 1 mM EDTA, 1 mM dithiothreitol, and 5 μg/ml aprotinin, leupeptin, and pepstatin). Fluorescence was recorded each 15 min for 1 h, and caspase activity was expressed in arbitrary units. […]

[2] = tested on: PI3K; details: J. Natl. Can. Inst. 2006, 98, 545-556; cited from earlier work
[3] = tested on: subcutaneous xenograft tumors; assay: Luminescence imaging of subcutaneous xenograft tumors injected with LY294002; type: in vivo, mice; details: injections into subcutaneous xenograft tumors, versus DMSO
From the text: (§1) FIG. 4A) Representative luminescent images (superimposed on black and white images) of mice injected with solvent (DMSO) or LY294002. Injection site is indicated by arrow. FIG. 4B) Changes in luminescence of subcutaneous xenograft tumors injected with LY294002 or DMSO (error bars show standard deviations between 3 tumors injected with each agent). FIG. 4C) Tissue sections of xenograft tumors. Arrowheads point at apoptotic cells. FIG. 4D) Inhibition of Akt phosphorylation in xenografts injected with LY294002. Western blotting of tumor lysates.
(§2) Western blotting—Tumors were excised, homogenized on ice in lysis buffer [10% glycerol, 50 mM PIPES-KOH (pH 7.4), 5 mM EDTA, 1% NP40, 1 mM DTT, protease and phosphatase inhibitors;] centrifuged 10 min 14,000 G to precipitate unsoluble fraction. […] Nitrocellulose membranes were probed with antibodies to Akt and phospho-Akt according to manufacturer's instructions; the appropriate secondary antibodies were then applied and positive signals detected by enhanced chemiluminescence. […] Luminescence Imaging—Tumor growth was analyzed with a Xenogen IVIS® 100 optical imaging system (Caliper Life Sciences, Hopkinton, Mass.). […] To account for background and nonspecific luminescence, mice were imaged before injection of luciferase. […] Fluorescence was recorded each 15 min for 1 h, and caspase activity was expressed in arbitrary units. […]

[4] = tested on: PI3K; assay: Western blotting of tumor lysates for Akt phosphorylation; type: in vivo, mice; details: xenografts injected with LY294002
From the text: as §1, §2

## Cn1c(=O)n(-c2ccc(C(C)(C)C#N)cc2)c2c3cc(-c4cnc5ccccc5c4)ccc3ncc21 [BEZ235]
[1]
  concentration at which maximal caspase activation is achieved: 5 µM

## FC(F)c1nc2ccccc2n1-c1nc(N2CCOCC2)nc(N2CCOCC2)n1 [ZSTK474]
[1]; 0.5 μM of ZSTK474 in combination with 10 nM of TGFαPE40 fusion
  induction of apoptosis: maximal induction of apoptosis
[1]; C42 cells, 500 nM ZSTK474 with 10 nM TGFα-pseudomonas exotoxin chimera (PE), 3 h and 6 h
  induction of apoptosis (caspase activity, time lapse video): synergistic induction of apoptosis
[1]
  concentration at which maximal caspase activation is achieved: 0.5 µM
[2]
  PI3K inhibition relative to LY294002: more efficiently than LY294002

## O=c1cc(N2CCOCC2)oc2c(-c3ccccc3)cccc12 [LY294002]
[3]
  tumor growth (luminescence of xenograft tumors): inhibit
[1]; 25 μM LY294002 in combination with 10 nM of TGFαPE40 fusion
  induction of apoptosis: maximal induction of apoptosis
[1]; C42 cells, 25 mcM LY294002 with increasing concentrations of PE, 6 h
  induction of apoptosis (caspase activity): synergistic induction of apoptosis
[1]
  concentration at which maximal caspase activation is achieved: 25 µM
[4]
  PI3K activity (Akt phosphorylation in xenografts): inhibit PI3K activity
